In patent publication US20160137639A1, “TRIAZOLE-ISOXAZOLE COMPOUND AND MEDICAL USE THEREOF” (JAPAN TOBACCO INC., priority 2012, published 2016):

Legend:
mouse RORγ = target: T1, mouse RORγ (Mus musculus, UniProt P51450); experiment: Luciferase reporter gene assay of inhibitory effect against RORγ transcriptional activity (GAL4-mRORγ plasmid in CHO cells); type: cell-based; details: read-out: LUC EC50 mRORg
T1 construct: mouse, NM_011281.2 and from Ile251 to Lys516; expressed in transfected cells; host or cells: CHO cells (transient co-transfection with pG5-Luc reporter)
T1 sequence (P51450 251-516): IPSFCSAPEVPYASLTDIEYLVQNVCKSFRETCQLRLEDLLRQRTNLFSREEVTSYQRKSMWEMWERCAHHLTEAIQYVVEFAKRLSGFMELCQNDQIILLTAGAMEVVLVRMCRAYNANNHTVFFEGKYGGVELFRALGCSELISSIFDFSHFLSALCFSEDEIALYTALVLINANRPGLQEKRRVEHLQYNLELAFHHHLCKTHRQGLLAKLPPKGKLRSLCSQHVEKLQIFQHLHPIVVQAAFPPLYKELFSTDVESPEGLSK
Procedure, shortened: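 CHO cells transiently co-transfected with GAL4-mouse RORγ LBD (Ile251–Lys516) and GAL4-dependent luciferase reporter; eight compound concentrations, 0.1% DMSO, 2 days at 37 °C. Luminescence as %-of-vehicle control; EC50 by curve fit, cytotoxic concentrations excluded.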

human RORγ = target: T2, human RORγ (Homo sapiens, UniProt P51449); experiment: Luciferase reporter gene assay of inhibitory effect against RORγ transcriptional activity (GAL4-hRORγ plasmid in CHO cells); type: cell-based; details: read-out: LUC EC50 hRORg
T2 construct: human, NM_005060.3 and from Ser253 to Lys518; expressed in transfected cells; host or cells: CHO cells (transient co-transfection with pG5-Luc reporter)
T2 sequence (P51449 253-518): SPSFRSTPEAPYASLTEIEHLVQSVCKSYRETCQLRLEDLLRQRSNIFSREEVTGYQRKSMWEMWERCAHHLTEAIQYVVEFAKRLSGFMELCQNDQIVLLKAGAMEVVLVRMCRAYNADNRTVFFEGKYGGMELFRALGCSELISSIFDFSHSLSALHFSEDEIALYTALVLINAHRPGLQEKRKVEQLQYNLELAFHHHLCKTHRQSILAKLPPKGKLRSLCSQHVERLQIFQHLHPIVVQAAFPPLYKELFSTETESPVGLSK

| Structure (SMILES) | EC50 (mouse RORγ) [µM] | EC50 (human RORγ) [µM] |
| --- | --- | --- |
| Cc1ccc(NC(=O)C[C@H](CCCO)c2noc([C@H]3C[C@@H](CC(C)(C)C)C3)c2C2CC2)c(C)c1O [Example F-699] | < 3 | < 3 |
| Cc1ccc(NC(=O)C[C@H](CCC(=O)O)c2noc([C@H]3C[C@@H](CCc4ccccc4)C3)c2C2CC2)c(Cl)c1 [Example F-700] | < 3 | < 3 |
| Cc1ccc(NC(=O)C[C@H](CCC(=O)O)c2nnn(-c3ccc(CCC4CCCC4)cc3)c2C2CC2)c(Cl)c1 [Example F-701] | < 3 | < 3 |
| Cc1ccc(NC(=O)C[C@H](CCCO)c2noc(-c3cc(CC(C)C)[nH]n3)c2C2CC2)c(F)c1 [Example F-702] | < 3 | < 3 |
| Cc1ccc(NC(=O)C[C@H](CCC(=O)O)n2nnc([C@H]3C[C@@H](CC(C)(C)C)C3)c2C2CC2)c(F)c1 [Example F-703] | < 3 | < 3 |
| Cc1ccc(NC(=O)CCc2noc([C@H]3C[C@@H](CC(C)(C)C)C3)c2COCC(=O)O)c(Cl)c1 [Example F-704] | > 3 | > 3 |
| Cc1ccc(NC(=O)C[C@H](CCCO)c2noc(-c3cn(CCC(C)(C)C)nc3C(F)(F)F)c2C2CC2)c(F)c1 [Example F-705] | > 3 | > 3 |
| Cc1ccc(NC(=O)C[C@H](CCC(=O)O)c2nnn([C@H]3C[C@@H](CC(C)(C)C(C)C)C3)c2C2CC2)c(F)c1 [Example F-706] | < 3 | < 3 |
| Cc1ccc(NC(=O)C[C@H](CCC(=O)O)c2nnn([C@H]3C[C@@H](CC(C)(C)C(C)C)C3)c2C(F)(F)F)c(F)c1 [Example F-707] | < 3 | < 3 |
| Cc1ccc(NC(=O)C[C@H](CCC(=O)O)c2nnc([C@H]3C[C@@H](CC(C)(C)C(C)C)C3)n2C2CC2)c(Cl)c1 [Example F-708] | < 3 | < 3 |
| Cc1ccc(NC(=O)C[C@H](CCCO)c2nnn([C@H]3C[C@@H](CC(C)(C)C(C)C)C3)c2C2CC2)c(F)c1 [Example F-709] | < 3 | < 3 |
| Cc1ccc(NC(=O)C[C@H](CCCO)c2nnn([C@H]3C[C@@H](CC(C)(C)C(C)C)C3)c2C(F)(F)F)c(F)c1 [Example F-710] | < 3 | < 3 |
| CC(C)(C)C[C@H]1C[C@@H](c2onc([C@@H](CCC(=O)O)CC(=O)NC3CCC3)c2C2CC2)C1 [Example F-711] | > 3 | > 3 |
| CC(C)(C)C[C@H]1C[C@@H](c2onc([C@@H](CCC(=O)O)CC(=O)NC34CC(C3)C4)c2C2CC2)C1 [Example F-712] | > 3 | > 3 |
| Cc1ccc(NC(=O)C[C@H](CCC(=O)O)c2nnn([C@H]3C[C@@H](CC(C)(C)C(C)C)C3)c2C2CC2)c(Cl)c1 [Example F-713] | < 3 | < 3 |
| Cc1ccc(NC(=O)C[C@H](CCC(=O)O)c2onc([C@H]3C[C@@H](CC(C)(C)C)C3)c2C2CC2)c(Cl)c1 [Example F-715, (S)-5-(2-Chloro-4-methyl-phenylcarbamoyl)-4-{4-cyclopropyl-3-[3-(2,2-dimethyl-propyl)-cyclobutyl]-isoxazol-5-yl}-pentanoic acid] | < 3 | < 3 |
| Cc1ccc(NC(=O)C[C@H](CCC(=O)O)c2noc([C@H]3C[C@@H](CC(C)(C)CO)C3)c2C2CC2)c(Cl)c1 [Example F-716] | < 3 | < 3 |
| CC(C)(C)C[C@H]1C[C@@H](c2noc([C@@H](CCC(=O)O)CC(=O)Nc3ccc(Cl)cc3F)c2C2CC2)C1 [Example F-717] | < 3 | < 3 |
| CC(C)(C)C[C@H]1C[C@@H](c2noc([C@@H](CCC(=O)O)CC(=O)Nc3ccc(Cl)cc3Cl)c2C2CC2)C1 [Example F-718] | < 3 | < 3 |
| Cc1ccc(NC(=O)CCc2noc([C@H]3C[C@@H](CC(C)(C)C)C3)c2C2CC2)c(Cl)c1 [Example F-719] | < 3 | < 3 |
| CC(C)(C)C[C@H]1C[C@@H](c2onc(CCC(=O)Nc3ccc(Cl)cc3Cl)c2C2CC2)C1 [Example F-720] | < 3 | < 3 |
